Assay results published in patent EP2307018B1, “OXYMATRINE COMPOSITIONS AND USE THEREOF FOR TREATING AND PREVENTING CHRONIC INFECTIOUS DISEASES” (Chia, John K.S., priority 2008, dated 2010).

Columns and labels:
[1] = test system: interleukin-12P35+P40/interleukin-10; experiment: cytokine gene expression in CFS patients at start of and during oxymatrine therapy (FIG. 5); format: in vivo, human
From the text: • FIG. 1 graphically illustrates the comparison of Th1/Th2 (interleukin-12p35+P40/interleukin-4 + interleukin-10, RQ is the gene expression ratio) gene expression of patients who are functional (able to work) versus totally disability (not able to work). The difference therein is statistically significant (p<0.01, pair t test). • FIG. 2 illustrates the infected human stomach (biopsy of case 5 stained with 5D8/1) before treatment with oxymatrine. • FIG. 3 illustrates the stomach biopsy of case 5 stained with 5 D8/1 after taking oxymatrine for 6 months. • FIG. 4 graphically illustrates a cytokine gene expression study before and after oxymatrine (RQ is the gene expression ratio). • FIG. 5 graphically illustrates cytokine gene expression of interleukin-12P35+P40/interleukin-10 in tissue from CFS patients at the start of (pre-oxymatrine) and during oxymatrine therapy (n=17).

[2] = test system: enterovirus protein; experiment: immunoperoxidase staining of stomach biopsy before and after oxymatrine; format: in vivo, human; conditions: one patient (case 5), after taking oxymatrine for 6 months, correlated with symptomatic improvement
From the text: FIG. 2 illustrates immunoperoxidase staining for enterovirus protein in a stomach biopsy before oxymatrine therapy for one patient. […] The decrease in viral protein correlated with significant symptomatic improvement.

[3] = test system: enterovirus; experiment: case report Example 3, treatment of chronic fatigue; format: in vivo, human
Procedure: A person who had recurrent episodes of debilitating fatigue became totally incapacitated after approximately 17 years. The patient was treated with a combination of alpha and gamma interferon for six weeks with acceptable results. They went into remission but relapsed nine months later after developing a minor upper respiratory infection. They improved minimally after several months of bed rest, but was barely able to work six hours per day. They had brain fog, myalgia (7/10 pain) and was barely able to walk even 1-2 blocks.
Three days after taking oxymatrine at a dose of 300 mg bid, the myalgia intensified (10/10 pain), especially one hour after taking the pills. One week after starting oxymatrine, routine laboratory tests including CBC, chemistry panel and creatine phosphokinase (CPK) were normal. They continued having significant fatigue and myalgia for the next three weeks, but the symptoms resolved one week after stopping the medication. Mild increase in myalgia recurred three days after resuming oxymatrine, but resolved after continuing the medication for the next two weeks. The patient felt well at the end of three months with minimal discomfort in a few muscle groups.
Severe myalgia recurred after resuming vigorous exercise for three weeks while taking oxymatrine. They had to stop exercise for the two months allowing cessation of myalgia. After taking oxymatrine for six months, the patient felt well. Over the next six months after stopping the medication, the patient continuously performed heavy physical activities without significant difficulty. After developing another episode of upper respiratory symptoms, their symptoms relapsed. They have resumed oxymatrine but experienced increasing myalgia as the fatigue improved.

[4] = test system: Mycobacterium avium complex (MAC); experiment: case report Example 8, Mycobacterium avium complex infection; format: in vivo, human
Procedure: A person with known history of Mycobacterium avium complex (MAC) infection of the lung and bronchiectasis for several years was treated with clarithromycin, ethambutol, ciprofloxacin and rifabutin for about five years. As a result of persistent positive sputum culture for MAC, the patient was also treated with gamma interferon (an immune booster) without significant benefit. Intravenous amikacin was added following right middle and left lingula lobectomy. In spite of the above therapy, sputum and repeat bronchial washing obtained by bronchoscopy grew MAC within three weeks. A computed tomography scan of the chest remained unchanged except for the post-surgical changes.
Sputum became clear in color then resolved. About two months after the start of oxymatrine, the patient had fevers, flu-like symptoms, increase in non-productive cough, bilateral uveitis and elevation of liver enzymes to 3.5 times normal values. The symptoms lasted two weeks and resolved after tapering dose of oxymatrine to 200 mg bid. Liver enzymes returned to normal within six weeks. […] The anti-MAC medications were discontinued after […] of oxymatrine therapy. The dose of oxymatrine was tapered to 100 mg tid at four and a half months of therapy and then stopped after six months of total therapy. The patient felt well at the six month follow-up.

[5] = test system: varicella-zoster virus (VZV); experiment: case report Example 9, chronic recurrent varicella-zoster virus infection (shingles); format: in vivo, human; conditions: 200 mg bid
Procedure: A person developed recurrent shingles after multiple episodes of sinus infections and sinus surgeries. They also had chronic indigestion and nausea. Fatigue became so severe that they were bedridden for several years.
Coxsackievirus B4 antibody was 1:320. […] The patient was started on oxymatrine 200 mg bid.

[6] = test system: enterovirus; experiment: case report Example 10, acute enterovirus infection of the gastrointestinal tract; format: in vivo, human
From the text: A person developed subacute onset of severe fatigue, nausea, anorexia and progressive weight loss of 20 pounds following an upper respiratory infection.

[7] = test system: echoviruses; conditions: in vitro; mechanism not defined; cited from earlier work
[8] = test system: hepatitis B virus; conditions: cited from earlier work
[9] = compared to placebo-treated animals

## O=C1CCC[C@@H]2[C@H]3CCC[N+]4([O-])CCC[C@@H](CN12)[C@@H]34 (stereo partly shown) [oxymatrine]
[1]; seven responders of n=17, pre-oxymatrine vs during therapy
  increase of the interleukin-12P35+P40/interleukin-10 ratio (gene expression): greater than 2 fold
[1]; ten non-responders of n=17, pre-oxymatrine vs during therapy
  interleukin-12P35+P40/interleukin-10 ratio (gene expression): remained the same or decreased
[2]
  viral protein by staining with enterovirus-specific monoclonal antibody (5 D8/1): significant reduction
[3]; after taking oxymatrine for six months
  clinical outcome: felt well
[3]; at the end of three months, minimal discomfort in a few muscle groups
  clinical outcome: felt well
[3]; one week after starting oxymatrine
  routine laboratory tests including CBC, chemistry panel and creatine phosphokinase (CPK): normal
[3]; three days after taking 300 mg bid, 7/10 before
  myalgia (pain): 10/10
[4]; about two months after start, returned to normal within six weeks after tapering to 200 mg bid
  elevation of liver enzymes: 3.5 times normal values
[4]; bronchoscopy six months after onset of oxymatrine therapy, with anti-MAC medications
  repeat bronchial washing culture: no growth of MAC
[4]; in vivo
  repeat computed tomography scans of the chest: healing and calcifications of the lesions
  tolerability: tolerated well
[4]; within two months
  night sweats: decreased from twice a week to once every two weeks
[5]
  outbreaks of shingles: less often and not as severe
[5]; three months, previously bedridden
  clinical outcome: went back to full-time work
[6]; 200 mg bid
  symptoms: promptly responded
[6]; after taking oxymatrine for ten days
  activity: resumed their normal activity
[7]
  growth inhibition of echoviruses in cell cultures: growth inhibition
[8]; [9]
  level of gamma interferon: increased more than three-fold
  level of interleukin-2: increased more than three-fold
  level of interleukin-4: decreased more than three-fold
  level of interleukin-10: decreased more than three-fold
[8]; mouse, in vivo
  effect on the hepatitis B viremia, mRNA and protein levels: No effect
